Measurements taken from PMC10606064, “2-Aminothiazole-Flavonoid Hybrid Derivatives Binding to Tau Protein and Responsible for Antitumor Activity in Glioblastoma” (International Journal of Molecular Sciences, 2023).

Key:
[1] = target: T1, full-length human Tau (hTau40) (Homo sapiens, UniProt P10636); test: Tau oligomerization inhibition assay (heparin-induced, thioflavin S fluorescence); format: biochemical; conditions: 2 µM Tau, heparin-induced, ThS; buffer A pH 6.9; 25 °C per table footnote (37 °C in method); mean ± SD; read-out: Inhibition of Aggregation IC50
T1 construct: The full-length human Tau (hTau40) was expressed in a transformed E. coli BL21 (DE3) strain; made in house; host or cells: E. coli BL21 (DE3)
Description: Tau oligomerization inhibition assay was performed at 37 °C in 96-well plates by monitoring thioflavin-S fluorescence at 520 nm after excitation at 440 nm using a microplate reader (POLARstar Omega system, BMG Labtech, Paris, France). The Tau oligomerization process was induced by heparin. […] The plates were shaken at 200 rpm for 10 s before each measurement. The real value of fluorescence at the plateau was determined using SciDAVis v1.23 software. Data were fitted to the SciDAVis built-in ExpGrowth equation by means of nonlinear least-squares regression analysis. Y = Y0 + A × exp(x/t)(1)
The unscaled Levenberg–Marquardt algorithm was used, and initial values were given to Y0, A, and t. The final Y0 value of the model corresponds to the plateau value. The plateau values were then used to calculate the Tau oligomerization inhibition percentage. The IC50 for each compound was calculated from the scatter plot of Tau oligomerization inhibition (in percentage) as a function of log10 of compound concentration. The IC50 value (in µM) thus corresponds to ten raised to the power of […].

[2] = test system: U138 glioblastoma cells; test: MTT cell viability assay, U138; format: cell-based; conditions: Homo sapiens, U138, 72 h, mean ± SEM, read-out: IC50 (metabolic activity)
Description: Cells harvested from sub-confluent monolayers were seeded at 15,000 cells per mL in a 96-well microtiter plate (Cambridge Technology, Labège, France) and cultured for 24 h under standard conditions. Standard medium was then replaced by fresh medium containing no drugs or compounds at different concentrations. The surviving cells were quantified after 72 h by the MTT assay, according to the manufacturer’s instructions. Briefly, 20 µL of 3-(4,5-diMethylThiazol-2-yl)-2,5diphenyl Tetrazolium bromide (MTT) solution at 5 mg.mL^−1 was added to cells for 3 h at 37 °C. The supernatant was discarded and replaced by 100 µL of dimethyl sulfoxide to dissolve formazan crystals. The absorbance was then read at 600 nm by spectrophotometry. For all concentrations of a given compound, cell viability was expressed as the percentage of the ratio between the mean absorbance of treated cells and the mean absorbance of untreated cells. Three independent experiments were performed, and the data were expressed as percentage of survival (using the untreated cells as 100%) and subjected to statistical analysis (n = 3). The IC50 was calculated using the Chou and Talalay method.

[3] = target: T2, mature Tau aggregates (Homo sapiens, UniProt P10636); test: Dissolution of preformed (mature) Tau aggregates, ThS fluorescence; format: biochemical; conditions: 10, 30 and 100 µM added to ThS-labelled aggregates after 8 h, 37 °C
T2 construct: The full-length human Tau (hTau40) was expressed in a transformed E. coli BL21 (DE3) strain; made in house; host or cells: E. coli BL21 (DE3)
Description: Moreover, we performed a qualitative study of the ability of QCT and compounds 1, 5, and 9 to dissolve preformed Tau aggregates (Figure 3).
Eight-hour time courses were performed with ThS to monitor heparin-induced Tau aggregation by spectrofluorometry at 520 nm (37 °C), then 10, 30, and 100 µM of compounds (curves b–d) were added to the ThS-labelled Tau aggregates. A control was performed without compound (curve a).

[4] = test system: U87 shCTRL cells; test: Mitotic index by high-content imaging, U87 shCTRL; format: cell-based, human; conditions: 48 h, 5-times IC50 of compounds
Description: (§1) For scoring mitotic indexes, an automated high-content screening confocal microscopy approach was employed to identify cells undergoing mitosis from a large population of cells. For this, cells nuclei were stained with DAPI. Briefly, fibronectin-coated clear-glass-bottom black 96-well imaging plates were seeded with 100 µL of cell suspension (60,000 cell.mL^−1) in each well, with both U87 shCTRL and U87 ShTau cell lines. Cells were treated with 5-times IC50 of compounds for 48 h, then they were fixated inside the palates with 4% formaldehyde (in PBS pH 7.4) for 20 min at room temperature, permeabilized with PBS-Triton X-100 0.5% for 10 min at room temperature. DNA was then stained with DAPI (10 µg.mL^−1) for 5 min at room temperature and in the darkness. After being washed, cells were kept in PBS at 4 °C and imaged while in PBS. Automated confocal microscopy was carried out using an Opera Phenix (PerkinElmer) high-content screening microscope using a 20× Air/0.4 NA air objective. For each condition, 6 wells were prepared and a total of 61 fields were acquired for each well. Image analysis was performed using Harmony high-content analysis v4.8 software and PhenoLOGIC Machine Learning technology, which uses a learn-by-example approach. As a first step, nuclei were segmented and multiple parameters for these nuclei were calculated using Harmony v4.8 software building blocks. After training, PhenoLOGIC Machine Learning then selects the best parameters to detect nuclei undergoing the M phase of mitosis. From this, the mitotic index of each condition was calculated by dividing the number of cells undergoing mitosis over the total number of cells.

[5] = test system: U87 shTau cells; test: Mitotic index by high-content imaging, U87 shTau; format: cell-based, human; conditions: 48 h, 5-times IC50 of compounds
Description: as §1

[6] = target: T3, Tau-induced microtubule assembly (tubulin) (Homo sapiens, UniProt P10636); test: Turbidimetry of in vitro Tau-induced microtubule assembly; format: biochemical, lamb; conditions: 10 µM tubulin, 5 µM Tau, 2.5–50 µM compound, 37 °C
T3 construct: The full-length human Tau (hTau40) was expressed in a transformed E. coli BL21 (DE3) strain; made in house; host or cells: Tau: E. coli BL21 (DE3); tubulin: purified from lamb brain tissue
Description: The polymerization of tubulin was monitored by measuring the apparent absorbance at 350 nm using a Beckman DU 7400 spectrophotometer at 37 °C. Tubulin at a final concentration of 10 µM was mixed with compounds at the indicated concentration and immediately placed into the spectrometer chamber. When the signal was stable, Tau at a final concentration of 5 µM was added to induce microtubule formation. Measurements were continued until turbidity values reached a plateau.

T3 sequence (P10636 2-441 isoform P10636-8): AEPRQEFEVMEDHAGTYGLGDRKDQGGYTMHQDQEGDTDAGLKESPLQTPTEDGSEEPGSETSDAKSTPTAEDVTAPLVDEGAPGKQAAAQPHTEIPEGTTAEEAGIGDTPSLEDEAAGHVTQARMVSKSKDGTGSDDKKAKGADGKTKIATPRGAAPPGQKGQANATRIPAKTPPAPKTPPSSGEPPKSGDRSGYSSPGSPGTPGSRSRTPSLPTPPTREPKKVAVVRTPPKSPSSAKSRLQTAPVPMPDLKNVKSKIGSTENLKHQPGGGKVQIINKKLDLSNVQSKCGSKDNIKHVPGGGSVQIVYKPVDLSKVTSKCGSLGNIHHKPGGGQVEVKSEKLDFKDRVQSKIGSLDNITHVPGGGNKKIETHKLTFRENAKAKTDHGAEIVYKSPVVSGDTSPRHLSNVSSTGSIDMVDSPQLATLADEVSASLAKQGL
T1 sequence (P10636 1-441 isoform P10636-8): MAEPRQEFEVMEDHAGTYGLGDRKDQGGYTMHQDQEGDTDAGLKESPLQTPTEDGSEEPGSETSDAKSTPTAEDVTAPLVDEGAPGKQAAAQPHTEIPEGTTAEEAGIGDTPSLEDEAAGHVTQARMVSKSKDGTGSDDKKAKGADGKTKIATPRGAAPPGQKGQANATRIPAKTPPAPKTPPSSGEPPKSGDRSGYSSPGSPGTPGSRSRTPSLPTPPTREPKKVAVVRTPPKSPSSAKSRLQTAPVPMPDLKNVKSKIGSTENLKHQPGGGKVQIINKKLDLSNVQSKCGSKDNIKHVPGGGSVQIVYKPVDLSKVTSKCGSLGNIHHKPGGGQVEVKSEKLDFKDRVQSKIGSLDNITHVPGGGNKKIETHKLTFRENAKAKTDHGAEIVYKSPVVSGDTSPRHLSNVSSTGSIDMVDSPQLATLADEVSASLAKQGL
T2 sequence (P10636 1-441 isoform P10636-8): as above

Row | IC50 [1] | IC50 [2] | effect on turbidity time course of Tau-induced microtubule assembly [6] | SMILES | Ability to dissolve mature (preformed) Tau aggregates [3] | mitotic index [4] | mitotic index [5]
1 | 31.7 ± 7.3 µM | 2.3 ± 1 µM | no effect on the turbidity time course | Nc1nc2ccc3oc(-c4cccc(Oc5ccccc5)c4)cc(=O)c3c2s1 [Compound 2, 2-amino-7-(3-phenoxyphenyl)-9H-chromeno [6,5-d]thiazol-9-one] | able to dissolve mature Tau aggregates | no significant variation of mitotic indexes | no significant variation of mitotic indexes
2 | > 100 µM | > 100 µM | no effect on the turbidity time course | Nc1nc2ccc3oc(C(=O)O)cc(=O)c3c2s1 [Compound 5] | no significant change of ThS fluorescence intensity | 2.47 ± 0.19% | 3 ± 0.39%
